Measurements taken from ChEMBL document CHEMBL4138316, “Optimization of Isothiazolo[4,3- b]pyridine-Based Inhibitors of Cyclin G Associated Kinase (GAK) with Broad-Spectrum Antiviral Activity” (J Med Chem, 2018).
Converted amounts (≈) assume the structure as drawn. The source made the active and inactive calls. No cut-off for these calls is given here.

Columns and labels:
Huh-7 [1] = experiment: Cytotoxicity against human HuH7 cells after 48 hrs by Alamar Blue assay; type: cell-based; details: huh-7, 48 h
dengue virus type 2 [2] = experiment: Antiviral activity against DENV2 New Guinea C infected in human HuH7 cells after 48 hrs by luciferase reporter gene assay; type: functional, organism-based; details: Huh-7, 48 h
[3] = biological target: T1, Cyclin-G-associated kinase (Homo sapiens, UniProt O14976)
T1 sequence (O14976 whole entry): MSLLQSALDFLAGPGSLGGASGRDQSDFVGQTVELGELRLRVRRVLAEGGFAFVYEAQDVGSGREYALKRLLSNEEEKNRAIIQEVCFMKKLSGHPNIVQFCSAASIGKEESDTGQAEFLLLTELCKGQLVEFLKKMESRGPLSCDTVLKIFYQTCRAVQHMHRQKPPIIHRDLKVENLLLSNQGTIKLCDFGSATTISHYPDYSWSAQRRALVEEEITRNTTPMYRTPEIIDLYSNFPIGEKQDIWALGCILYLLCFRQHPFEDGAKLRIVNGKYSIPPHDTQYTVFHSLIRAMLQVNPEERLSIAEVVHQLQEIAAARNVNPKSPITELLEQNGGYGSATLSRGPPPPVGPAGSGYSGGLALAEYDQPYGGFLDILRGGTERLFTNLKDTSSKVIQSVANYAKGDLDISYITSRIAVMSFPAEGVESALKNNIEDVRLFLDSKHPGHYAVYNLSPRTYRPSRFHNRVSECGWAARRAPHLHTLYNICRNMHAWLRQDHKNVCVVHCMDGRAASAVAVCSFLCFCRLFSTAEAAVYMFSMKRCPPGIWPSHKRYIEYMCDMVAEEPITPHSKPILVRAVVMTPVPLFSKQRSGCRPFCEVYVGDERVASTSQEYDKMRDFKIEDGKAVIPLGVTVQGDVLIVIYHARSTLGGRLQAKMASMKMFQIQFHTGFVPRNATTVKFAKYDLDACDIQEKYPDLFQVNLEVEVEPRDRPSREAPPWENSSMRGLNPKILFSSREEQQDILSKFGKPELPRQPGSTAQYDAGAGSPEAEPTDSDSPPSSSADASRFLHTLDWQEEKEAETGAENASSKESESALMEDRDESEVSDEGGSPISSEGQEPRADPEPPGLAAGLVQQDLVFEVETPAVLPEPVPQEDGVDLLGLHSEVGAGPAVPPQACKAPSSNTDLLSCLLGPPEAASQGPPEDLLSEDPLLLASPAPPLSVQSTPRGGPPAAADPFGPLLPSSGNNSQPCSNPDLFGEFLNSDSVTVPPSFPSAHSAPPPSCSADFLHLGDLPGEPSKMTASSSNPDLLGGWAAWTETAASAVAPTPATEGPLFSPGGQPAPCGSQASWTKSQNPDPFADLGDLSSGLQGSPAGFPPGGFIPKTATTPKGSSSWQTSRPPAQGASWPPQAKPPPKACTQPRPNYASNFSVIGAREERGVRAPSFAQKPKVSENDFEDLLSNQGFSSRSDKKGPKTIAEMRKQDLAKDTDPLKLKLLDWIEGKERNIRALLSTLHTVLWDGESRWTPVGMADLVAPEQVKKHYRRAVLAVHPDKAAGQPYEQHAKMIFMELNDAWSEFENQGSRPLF

Ebolavirus = experiment: Antiviral activity against Ebolavirus infected in human HuH7 cells after 48 hrs by immunofluorescence assay; type: functional, cell-based; details: for EC90: Orthoebolavirus, Huh-7, 48 h
Huh-7 [4] = experiment: Cytotoxicity against human HuH7 cells after 48 hrs by CellTiter-Glo assay; type: cell-based; details: huh-7, 48 h
[5] = biological target: T2, Aurora kinase C (Homo sapiens) (UniProt Q9UQB9); experiment: Inhibition of wild-type human full length AURKC (M1 to S275 residues) expressed in bacterial expression system at 10 uM by ATP-site competition binding assay based KinomeScan assay relative to control
T2 sequence (whole entry): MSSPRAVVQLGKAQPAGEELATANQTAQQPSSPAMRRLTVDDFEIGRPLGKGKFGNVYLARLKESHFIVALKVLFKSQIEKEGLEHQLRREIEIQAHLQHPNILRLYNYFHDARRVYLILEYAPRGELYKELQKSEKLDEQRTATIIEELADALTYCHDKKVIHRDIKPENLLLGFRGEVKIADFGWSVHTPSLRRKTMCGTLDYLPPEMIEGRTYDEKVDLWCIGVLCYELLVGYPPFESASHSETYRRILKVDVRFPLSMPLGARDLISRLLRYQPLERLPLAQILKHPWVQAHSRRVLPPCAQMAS

[6] = biological target: Mitogen-activated protein kinase 14 (Homo sapiens) (UniProt Q16539); experiment: Inhibition of wild-type human full length MAPK14 (M1 to S360 residues) expressed in bacterial expression system at 10 uM by ATP-site competition binding assay based KinomeScan assay relative to control
[7] = biological target: Ephrin type-A receptor 7 (Homo sapiens) (UniProt Q15375); experiment: Inhibition of wild-type human partial length EPHA7 (Y608 to S912 residues) expressed in bacterial expression system at 10 uM by ATP-site competition binding assay based KinomeScan assay relative to control
[8] = biological target: Mast/stem cell growth factor receptor Kit (Homo sapiens, UniProt P10721); experiment: Inhibition of wild-type human partial length KIT (I571 to D952 residues) expressed in bacterial expression system at 10 uM by ATP-site competition binding assay based KinomeScan assay relative to control
dengue virus type 2 [9] = experiment: Antiviral activity against DENV2 16881 infected in human MDDC after 72 hrs by plaque assay; type: functional, organism-based; details: Dengue virus, 16881, 72 h
[10] = Cytotoxicity against human MDDC cells after 72 hrs by Alamar Blue assay; type: cell-based
[11] = biological target: Tyrosine-protein kinase ABL1 (Homo sapiens) (UniProt P00519); experiment: Inhibition of wild-type human non-phosphorylated ABL1 (S229 to K512 residues) expressed in mammalian expression system at 10 uM by ATP-site competition binding assay based KinomeScan assay relative to control
[12] = biological target: Receptor-type tyrosine-protein kinase FLT3 (Homo sapiens) (UniProt P36888); experiment: Inhibition of wild-type human partial length FLT3 (V592 to Y969 residues) expressed in bacterial expression system at 10 uM by ATP-site competition binding assay based KinomeScan assay relative to control
Dengue virus = experiment: Antiviral activity against Dengue virus infected in doxycycline-inducible GAK (unkown origin) transfected TREx293 cells up to 20 uM after 72 hrs by luciferase reporter gene assay; type: functional, organism-based
[13] = Aqueous solubility in PBS buffer at pH 7.4 at 100 uM after 1 hr by LC-MS/MS analysis; type: physicochemical; details: pH 7.4, 1 h
[14] = Apparent permeability cross basolateral to apical side in MDCK-MDR1 cells at 5 uM after 90 mins by LC-MS/MS analysis; type: ADME, cell-based, Canis lupus familiaris; details: dog, mdck-mdr1, 1.5 h
Chikungunya virus = experiment: Antiviral activity against Chikungunya virus AF15561 infected in African green monkey Vero cells preincubated for 48 hrs followed by viral infection measured after 48 hrs by plaque assay; type: functional, organism-based
[15] = Apparent permeability cross apical to basolateral side in MDCK-MDR1 cells at 5 uM after 90 mins by LC-MS/MS analysis; type: ADME, cell-based, Canis lupus familiaris; details: dog, mdck-mdr1, 1.5 h
[16] = biological target: T3, Dual specificity mitogen-activated protein kinase kinase 5 (Homo sapiens) (UniProt Q13163); experiment: Inhibition of wild-type human partial length MAP2K5 (L98 to P448 residues) expressed in mammalian expression system at 10 uM by ATP-site competition binding assay based KinomeScan assay relative to control
T3 sequence (whole entry): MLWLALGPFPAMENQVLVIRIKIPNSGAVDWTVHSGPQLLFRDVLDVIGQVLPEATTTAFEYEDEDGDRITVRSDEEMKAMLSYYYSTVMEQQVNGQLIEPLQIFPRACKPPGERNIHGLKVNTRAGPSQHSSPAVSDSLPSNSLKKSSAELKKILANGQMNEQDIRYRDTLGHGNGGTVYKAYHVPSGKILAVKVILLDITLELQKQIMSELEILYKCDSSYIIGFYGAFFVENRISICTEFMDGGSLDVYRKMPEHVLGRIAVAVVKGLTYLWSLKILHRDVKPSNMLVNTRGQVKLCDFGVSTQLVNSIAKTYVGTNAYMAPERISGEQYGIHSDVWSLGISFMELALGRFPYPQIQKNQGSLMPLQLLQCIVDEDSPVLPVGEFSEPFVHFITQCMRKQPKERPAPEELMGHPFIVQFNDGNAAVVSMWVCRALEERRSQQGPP

[17] = biological target: Platelet-derived growth factor receptor beta (Homo sapiens) (UniProt P09619); experiment: Inhibition of wild-type human partial length PDGFRB (V582 to Y1009 residues) expressed in bacterial expression system at 10 uM by ATP-site competition binding assay based KinomeScan assay relative to control

Chain of Ephrin type-A receptor 7 (Homo sapiens) (Q15375 28-998 limits assumed): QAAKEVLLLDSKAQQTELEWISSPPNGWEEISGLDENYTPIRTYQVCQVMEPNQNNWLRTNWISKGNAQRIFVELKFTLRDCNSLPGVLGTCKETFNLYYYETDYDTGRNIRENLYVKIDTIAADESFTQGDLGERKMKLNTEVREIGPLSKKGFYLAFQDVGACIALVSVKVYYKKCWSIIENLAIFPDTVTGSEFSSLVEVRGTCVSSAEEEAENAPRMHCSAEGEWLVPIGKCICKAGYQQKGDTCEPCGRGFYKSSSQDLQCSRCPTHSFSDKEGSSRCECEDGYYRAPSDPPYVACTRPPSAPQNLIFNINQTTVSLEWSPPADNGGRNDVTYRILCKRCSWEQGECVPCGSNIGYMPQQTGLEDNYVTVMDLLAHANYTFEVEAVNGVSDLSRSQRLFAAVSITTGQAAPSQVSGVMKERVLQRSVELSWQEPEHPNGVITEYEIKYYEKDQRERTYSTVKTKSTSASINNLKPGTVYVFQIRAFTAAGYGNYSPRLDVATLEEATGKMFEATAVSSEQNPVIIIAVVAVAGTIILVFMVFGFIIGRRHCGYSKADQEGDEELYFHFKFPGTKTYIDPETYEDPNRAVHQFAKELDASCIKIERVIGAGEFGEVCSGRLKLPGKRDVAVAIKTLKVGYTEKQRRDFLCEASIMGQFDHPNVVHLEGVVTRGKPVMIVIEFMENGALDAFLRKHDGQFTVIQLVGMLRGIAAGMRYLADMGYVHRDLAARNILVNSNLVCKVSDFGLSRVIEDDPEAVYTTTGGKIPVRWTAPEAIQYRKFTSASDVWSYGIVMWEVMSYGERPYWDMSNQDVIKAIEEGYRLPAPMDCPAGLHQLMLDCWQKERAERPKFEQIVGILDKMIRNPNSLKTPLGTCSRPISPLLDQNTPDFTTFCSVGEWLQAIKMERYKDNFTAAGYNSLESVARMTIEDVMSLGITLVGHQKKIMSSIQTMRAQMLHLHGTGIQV
Chain of Tyrosine-protein kinase ABL1 (Homo sapiens) (P00519 whole entry, the tested form may be a part): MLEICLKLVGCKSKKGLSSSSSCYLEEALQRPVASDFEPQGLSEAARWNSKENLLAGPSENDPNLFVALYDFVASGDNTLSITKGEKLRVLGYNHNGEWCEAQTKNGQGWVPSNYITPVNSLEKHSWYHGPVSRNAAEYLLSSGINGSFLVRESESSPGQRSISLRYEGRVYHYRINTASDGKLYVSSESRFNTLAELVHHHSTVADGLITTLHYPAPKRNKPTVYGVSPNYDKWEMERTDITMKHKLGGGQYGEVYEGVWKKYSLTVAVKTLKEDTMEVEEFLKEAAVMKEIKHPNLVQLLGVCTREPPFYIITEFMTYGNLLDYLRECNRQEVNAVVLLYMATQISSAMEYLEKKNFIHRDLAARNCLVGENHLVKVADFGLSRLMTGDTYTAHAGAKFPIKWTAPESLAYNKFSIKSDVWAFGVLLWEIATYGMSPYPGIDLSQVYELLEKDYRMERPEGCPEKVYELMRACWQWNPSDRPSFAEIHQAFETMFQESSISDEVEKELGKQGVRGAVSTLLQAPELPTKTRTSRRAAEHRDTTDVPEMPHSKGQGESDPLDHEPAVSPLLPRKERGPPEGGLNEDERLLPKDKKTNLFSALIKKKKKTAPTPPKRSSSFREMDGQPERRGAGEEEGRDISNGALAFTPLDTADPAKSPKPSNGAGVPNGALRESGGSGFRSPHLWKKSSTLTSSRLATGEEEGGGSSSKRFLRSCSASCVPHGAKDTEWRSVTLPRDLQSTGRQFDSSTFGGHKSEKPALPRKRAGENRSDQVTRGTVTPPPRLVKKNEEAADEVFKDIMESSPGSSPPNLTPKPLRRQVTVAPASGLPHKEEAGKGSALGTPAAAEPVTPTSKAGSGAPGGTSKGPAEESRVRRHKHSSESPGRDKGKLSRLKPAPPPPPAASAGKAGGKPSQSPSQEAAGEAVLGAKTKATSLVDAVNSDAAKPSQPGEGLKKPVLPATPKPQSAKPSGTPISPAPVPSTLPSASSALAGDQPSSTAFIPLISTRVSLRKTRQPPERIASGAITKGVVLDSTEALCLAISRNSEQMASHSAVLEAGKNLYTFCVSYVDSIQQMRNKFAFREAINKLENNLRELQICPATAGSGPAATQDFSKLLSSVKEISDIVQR
Chain of Mast/stem cell growth factor receptor Kit (P10721 whole entry, the tested form may be a part): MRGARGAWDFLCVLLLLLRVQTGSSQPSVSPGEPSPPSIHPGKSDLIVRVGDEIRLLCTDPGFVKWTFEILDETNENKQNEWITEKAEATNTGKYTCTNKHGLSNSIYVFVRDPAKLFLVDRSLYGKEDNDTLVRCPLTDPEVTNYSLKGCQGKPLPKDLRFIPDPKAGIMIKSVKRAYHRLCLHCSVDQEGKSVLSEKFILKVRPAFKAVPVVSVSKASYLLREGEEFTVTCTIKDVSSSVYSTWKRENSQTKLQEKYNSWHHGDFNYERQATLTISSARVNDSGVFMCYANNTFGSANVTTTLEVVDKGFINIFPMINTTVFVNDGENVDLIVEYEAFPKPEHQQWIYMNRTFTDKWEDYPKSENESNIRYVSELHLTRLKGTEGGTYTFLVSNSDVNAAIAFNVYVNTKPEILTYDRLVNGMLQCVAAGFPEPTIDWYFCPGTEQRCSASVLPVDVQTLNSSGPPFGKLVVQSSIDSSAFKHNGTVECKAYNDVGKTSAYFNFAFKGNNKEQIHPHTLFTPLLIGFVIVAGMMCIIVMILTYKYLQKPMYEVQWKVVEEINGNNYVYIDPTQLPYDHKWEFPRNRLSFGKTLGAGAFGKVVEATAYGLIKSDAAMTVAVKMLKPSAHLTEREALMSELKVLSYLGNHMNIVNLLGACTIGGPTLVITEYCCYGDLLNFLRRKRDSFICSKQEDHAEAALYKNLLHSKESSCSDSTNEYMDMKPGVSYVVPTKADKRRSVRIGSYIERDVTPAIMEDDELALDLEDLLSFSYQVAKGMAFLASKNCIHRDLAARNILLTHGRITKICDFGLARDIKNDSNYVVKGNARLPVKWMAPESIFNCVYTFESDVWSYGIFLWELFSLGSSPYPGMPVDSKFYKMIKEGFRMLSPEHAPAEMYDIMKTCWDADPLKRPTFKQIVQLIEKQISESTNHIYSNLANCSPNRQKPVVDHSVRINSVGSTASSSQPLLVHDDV
Chain of Mitogen-activated protein kinase 14 (Homo sapiens) (Q16539 whole entry, the tested form may be a part): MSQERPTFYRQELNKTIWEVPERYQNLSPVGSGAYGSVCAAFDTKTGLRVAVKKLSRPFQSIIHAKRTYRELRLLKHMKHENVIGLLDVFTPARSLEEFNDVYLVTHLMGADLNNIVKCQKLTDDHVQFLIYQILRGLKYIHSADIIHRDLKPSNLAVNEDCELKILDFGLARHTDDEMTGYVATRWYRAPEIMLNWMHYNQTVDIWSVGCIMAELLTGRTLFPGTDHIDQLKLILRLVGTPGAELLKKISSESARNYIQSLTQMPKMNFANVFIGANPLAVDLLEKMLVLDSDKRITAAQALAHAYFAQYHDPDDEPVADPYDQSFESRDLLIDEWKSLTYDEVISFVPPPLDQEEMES
Chain of Receptor-type tyrosine-protein kinase FLT3 (Homo sapiens) (P36888 whole entry, the tested form may be a part): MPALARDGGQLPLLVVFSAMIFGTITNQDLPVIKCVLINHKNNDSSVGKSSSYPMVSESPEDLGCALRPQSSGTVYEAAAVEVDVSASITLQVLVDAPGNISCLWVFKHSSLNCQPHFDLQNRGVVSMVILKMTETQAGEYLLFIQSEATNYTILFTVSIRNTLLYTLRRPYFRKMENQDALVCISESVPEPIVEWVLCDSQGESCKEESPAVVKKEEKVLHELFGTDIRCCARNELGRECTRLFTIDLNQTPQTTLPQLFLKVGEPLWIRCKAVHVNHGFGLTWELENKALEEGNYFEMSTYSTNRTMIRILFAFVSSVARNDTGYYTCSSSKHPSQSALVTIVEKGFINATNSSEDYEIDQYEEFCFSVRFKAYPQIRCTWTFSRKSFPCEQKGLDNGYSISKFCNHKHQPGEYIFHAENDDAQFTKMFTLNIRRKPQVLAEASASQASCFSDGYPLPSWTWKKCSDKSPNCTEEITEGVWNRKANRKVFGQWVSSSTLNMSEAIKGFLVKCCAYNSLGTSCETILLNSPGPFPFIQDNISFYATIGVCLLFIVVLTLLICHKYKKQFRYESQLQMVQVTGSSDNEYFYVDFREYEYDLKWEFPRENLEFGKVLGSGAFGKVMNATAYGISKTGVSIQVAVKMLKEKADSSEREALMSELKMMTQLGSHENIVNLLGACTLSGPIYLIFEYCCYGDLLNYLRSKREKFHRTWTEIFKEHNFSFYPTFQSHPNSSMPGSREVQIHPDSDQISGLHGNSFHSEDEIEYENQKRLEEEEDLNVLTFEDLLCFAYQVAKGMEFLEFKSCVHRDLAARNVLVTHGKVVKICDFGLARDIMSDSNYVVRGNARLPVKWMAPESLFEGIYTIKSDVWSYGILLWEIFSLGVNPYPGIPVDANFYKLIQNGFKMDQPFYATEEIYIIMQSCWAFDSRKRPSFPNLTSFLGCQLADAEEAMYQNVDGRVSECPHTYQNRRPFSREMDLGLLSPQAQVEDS

## COc1cc(-c2cnc3c(N4CCS(=O)(=O)CC4)snc3c2)ccc1N
Huh-7 [1]
  CC50: > 10 µM

## COc1cc(-c2cnc3c(N4CCCCC4)snc3c2)ccc1N
Huh-7 [1]
  CC50: > 10 µM

## COc1cc(-c2cnc3c(N4CCOC[C@H]4C)snc3c2)ccc1N
Huh-7 [1]
  CC50: > 10 µM

## COc1cc(-c2cnc3c(N4CCC(N)CC4)snc3c2)ccc1N
Huh-7 [1]
  CC50: > 10 µM

## COc1cc(-c2cnc3c(N4CC5(COC5)C4)snc3c2)ccc1N
Dengue virus type 2 [2]
  EC50: 7.12 µM
  EC90: > 10 µM
[3]
  Kd: 0.17 µM
Huh-7 [1]
  CC50: > 10 µM

## COc1cc(-c2cnc3c(NC4CCOCC4)snc3c2)ccc1N
Huh-7 [1]
  CC50: > 20 µM

## COc1cc(-c2cnc3c(N4CCO[C@H](C)C4)snc3c2)ccc1N
Ebolavirus
  Activity: Dose-dependent effect
Huh-7 [4]
  CC50: > 10 µM
Huh-7 [1]
  CC50: 20.7 µM

## COc1cc(-c2cnc3c(N4CCOC(C)(C)C4)snc3c2)ccc1N
Huh-7 [1]
  CC50: 4.14 µM

## COc1cc(-c2cnc3c(N4CCCOCC4)snc3c2)ccc1N
Huh-7 [1]
  CC50: > 10 µM

## COc1cc(-c2cnc3c(N4C[C@@H](C)O[C@@H](C)C4)snc3c2)ccc1N
[5]
  inhibition: > 90%
[6]
  inhibition: > 90%
[7]
  inhibition: > 90%
[8]
  inhibition: > 90%
Ebolavirus
  EC90: 7.73 µM
Dengue virus type 2 [9]
  EC50: 3.54 µM
[10]
  CC50: > 20 µM
[11]
  inhibition: > 90%
Dengue virus type 2 [2]
  EC50: 0.82 µM
  EC90: 1.76 µM
[12]
  inhibition: > 90%
Dengue virus
  Activity: inactive
Huh-7 [4]
  CC50: > 10 µM
[13]
  solubility: 0.52 µM (≈ 0.193 µg/mL)
[3]
  Kd: 0.089 µM
Huh-7 [1]
  CC50: > 25 µM
[14]
  Papp: 18.28 ×10⁻⁶ cm/s
Chikungunya virus
  Activity: Dose-dependent effect
[15]
  Papp: 31.33 ×10⁻⁶ cm/s
[16]
  inhibition: > 90%
[17]
  inhibition: > 90%

## COCCc1ccc(OCC(O)CNC(C)C)cc1 (stereo not drawn) [METOPROLOL]
[14]
  Papp: 30.66 ×10⁻⁶ cm/s
[15]
  Papp: 39.29 ×10⁻⁶ cm/s

## COc1cc(-c2cnc3c(N4CCOC[C@@H]4C)snc3c2)ccc1N
Huh-7 [1]
  CC50: 6.32 µM

## COc1cc(-c2cnc3c(N4C[C@@H](C)O[C@H](C)C4)snc3c2)ccc1N (relative stereo)
Dengue virus type 2 [2]
  EC50: 0.7 µM
  EC90: 2.15 µM
Huh-7 [1]
  CC50: > 10 µM

## COc1cc(-c2cnc3c(N4CCOC(C)C4)snc3c2)ccc1N (racemic)
Ebolavirus
  Activity: Dose-dependent effect
Huh-7 [4]
  CC50: 9.4 µM
Huh-7 [1]
  CC50: 21.5 µM

## COc1cc(-c2cnc3c(N4CCCC(C(N)=O)C4)snc3c2)ccc1N (stereo not drawn)
Huh-7 [1]
  CC50: > 10 µM

## COc1cc(-c2cnc3c(N4CCC(C#N)CC4)snc3c2)ccc1N
Huh-7 [1]
  CC50: 2.09 µM

## COc1cc(-c2cnc3c(N4CC5CCC(C4)O5)snc3c2)ccc1N
Huh-7 [1]
  CC50: > 10 µM

## COc1cc(-c2cnc3c(N4CCC(C(N)=O)CC4)snc3c2)ccc1N
Huh-7 [1]
  CC50: > 10 µM

## COc1cc(-c2cnc3c(N4CCC(F)(F)CC4)snc3c2)ccc1N
Huh-7 [1]
  CC50: > 10 µM

## COc1cc(-c2cnc3c(N4CCNC(=O)C4)snc3c2)ccc1N
[13]
  solubility: 51.3 µM (≈ 18.2 µg/mL)
Huh-7 [1]
  CC50: > 10 µM
[14]
  Papp: 43.48 ×10⁻⁶ cm/s
[15]
  Papp: 30.32 ×10⁻⁶ cm/s

## COc1cc(-c2cnc3c(N4CCOCC4)snc3c2)ccc1N
Ebolavirus
  EC90: 21.9 µM
Dengue virus type 2 [2]
  EC50: 1.84 µM
  EC90: 8.05 µM
Huh-7 [4]
  CC50: 11 µM
[13]
  solubility: 3.44 µM (≈ 1.18 µg/mL)
[14]
  Papp: 30.8 ×10⁻⁶ cm/s
[15]
  Papp: 45.45 ×10⁻⁶ cm/s

## CC(C)NCC(O)COc1cccc2ccccc12 (stereo not drawn) [PROPRANOLOL]
[13]
  solubility: 117 µM (≈ 30.3 µg/mL)

## COc1cc(-c2cnc3c(N4CCO[C@@H](C)C4)snc3c2)ccc1N
Ebolavirus
  Activity: Dose-dependent effect
Huh-7 [1]
  CC50: > 25 µM
